Experimental data from US10398747B2, “Composition comprising the extract of herbal combination for preventing or treating diabetic peripheral neuropathy” (DONG-A ST CO., LTD., priority 2011, dated 2019).

How the values were obtained:
[1] = test system: nerve growth factor (NGF); experiment: NGF level in sciatic nerve of db/db male mice with type 2 diabetes (ELISA); format: in vivo, mouse
Description: (§1) db/db Male mice, each weighing 40^˜45 g, were acclimated for one week at 22-24° C. at a relative humidity of 60-80%, with a standard diet and water fed thereto. On the day of the 9th week after birth, the mice in which diabetes had been induced were selected. Four weeks later, mice suffering from type 2 diabetes were separated according to blood sugar level. The extracts prepared in the above Examples were orally administered once a day for 12 weeks at predetermined doses to the mice, while α-lipoic acid and gabapentin were used as positive controls at a dose of 50 mg/kg and 100 mg/kg, respectively. Mice in each group were placed on a 58° C. hot plate, and examined for hyperalgesia to heat stimulus by measuring the latent time it took for the mice to feel a heat pain on their foot soles and jump.
Then, the mice were sacrificed to obtain the sciatic nerve therefrom. The sciatic nerve was processed in the same manner as in Test Example 1 and its NGF level was measured by ELISA.

[2] = test system: nerve growth factor (NGF); experiment: NGF level in sciatic nerve and salivary gland of ICR male mice with streptozotocin-induced type 1 diabetes (ELISA); format: in vivo, mouse; details: streptozotocin-diabetic ICR male mice
Description: (§2) ICR male mice, each weighing 25^˜30 g, were acclimated for one week at 22-24° C. at a relative humidity of 60-80%, with a standard diet and water fed thereto. Thereafter, a solution of streptozotocin in saline was intravenously administered once at a dose of 200 mg/kg to the mice to induce type 1 diabetes. Four weeks after the induction of diabetes, rats were divided into groups according to blood sugar level. The extracts prepared in the above Examples were orally administered once a day for 14 weeks at predetermined doses to the mice, while α-lipoic acid and Gabapentin were used as positive controls at a dose of 50 mg/kg and 100 mg/kg, respectively. Mice in each group were placed on a 58° C. hot plate, and examined for hyperalgesia to heat stimulus by measuring the latent time it took for the mice to feel a heat pain on their foot soles and jump.
Then, the mice were sacrificed to obtain the sciatic nerve and the salivary glands therefrom. The sciatic nerve and the salivary glands were processed in the same manner as in Test Example 1 and measured for NGF level by ELISA.

[3] = test system: SD male rats with streptozotocin-induced type 1 diabetes; experiment: Randall-Sellito test, threshold response to pressure on a paw, streptozotocin-diabetic SD rats; format: in vivo, rat
Description: (§3) The ability of the extracts to alleviate the pain caused by diabetic neuropathy was examined. In this regard, rats with streptozotocin-induced diabetes were separated and orally administered with the extracts at a predetermined dose once a day for 14 weeks, with α-lipoic acid 50 mg/kg and Gabapentin 100 mg/kg serving as positive controls. A Randall-Sellito test was performed to measure a threshold response to pressure on a paw. The latent time taken to respond to a thermal pain was measured using a tail-flick test. In order to evaluate the neurodegeneration which had progressed with the onset of diabetic neuropathy, the sciatic nerve taken from the rats of each group was fixed with formalin and observed under an electron microscope to measure the size and thickness of the myelin sheath, and the results are summarized in Table 9.
(§4) An increase in threshold to mechanical stimuli delineates an increase in threshold to pain. In the tail flick test, an increase in latent time to pain response corresponds to an increase in threshold to thermal stimuli, indicating the alleviation of pain.

[4] = test system: db/db male mice with type 2 diabetes; experiment: 58° C. hot plate test, db/db male mice with type 2 diabetes; format: in vivo, mouse
Description: as §1

[5] = test system: SD male rats with streptozotocin-induced type 1 diabetes; experiment: Neurodegeneration: size and thickness of myelin sheath of sciatic nerve by electron microscope, streptozotocin-diabetic SD rats; format: in vivo, rat
Description: as §3

[6] = test system: ICR male mice with streptozotocin-induced type 1 diabetes; experiment: 58° C. hot plate test, ICR male mice with streptozotocin-induced type 1 diabetes; format: in vivo, mouse; details: streptozotocin-diabetic ICR male mice
Description: as §2

[7] = test system: nerve growth factor (NGF); experiment: NGF level in sciatic nerve and salivary gland of SD male rats with streptozotocin-induced type 1 diabetes (ELISA); format: in vivo, rat; details: streptozotocin-diabetic SD male rats
Description: SD male rats, each weighing 220^˜250 g, were acclimated for one week at 22-24° C. at a relative humidity of 60-80% with standard diet and water fed thereto. Thereafter, a solution of streptozotocin in saline was intravenously administered once at a dose of 50 mg/kg to the rats to induce type 1 diabetes. Four weeks after the induction of diabetes, rats were divided into groups according to blood sugar level. The extracts prepared in the above Examples were orally administered once a day for 8 weeks at predetermined doses to the rats, while α-lipoic acid and Gabapentin were used as positive controls at does of 50 mg/kg and 100 mg/kg, respectively. Then, they were sacrificed to obtain the sciatic nerve and the salivary glands. The sciatic nerve and the salivary glands were processed in the same manner as in Test Example 1 and measured for NGF level by ELISA.

[8] = test system: nerve growth factor (NGF); experiment: Test for in vivo level of nerve growth factor in normal mouse model (ELISA); details: normal male ICR mice
Description: Ability of the crude extract with 50% ethanol in Example 1 to induce the secretion of nerve growth factor in vivo was evaluates (O. Arrieta and J. Sotelo et al., Retinoic acid increased tissue and plasma contents of nerve growth factor and prevents neuropathy in diabetic mice. European Journal of Clinical Investigation (2005) 35).
Male ICR mice, each weighing 25-30 g, were acclimated for 1 week at 22-24° C. at a relative humidity of 60-80% while being fed with water and a standard diet. They were divided into groups according to weight. The extracts prepared in the above Examples were orally administered in predetermined amounts to the mice, with Gabapentin used as a positive control at a doe of 100 mg/kg. 16 hours after which blood was sampled from the mice. They were then sacrificed to obtain the sciatic nerve and the salivary glands.
After the blood samples were centrifuged at 10,000 rpm for 10 min, the levels of nerve growth factor in the plasma thus separated were measured by ELISA (ABS 440 nm). The sciatic nerve and the salivary glands were weighed and a solution containing 100 mM Tris-HCl, 1M NaCl, 2% BSA, 4 mM EDTA, 2.0% Trtion®X-100, 0.02% sodium azide, 0.1 mg/ml pepstatin A, 5 mg/ml aprotonin, 0.5 mg/ml antipain, 167 mg/ml benzamidine, and 5.2 mg/ml PMSF was added in amounts proportional to the weights, followed by homogenization. The homogenates were incubated for 15 min with 1N HCl in an amount of 1 μl/50 μl for oxidization and neutralized with 1N NaOH in an amount of 1 μl/50 μl. Centrifugation was performed at 10,000 rpm for 10 min to obtain supernatants. Like plasma, the sciatic nerve and the salivary glands were quantitatively analyzed for the level of nerve growth factor.

[9] = test system: SD male rats with streptozotocin-induced type 1 diabetes; experiment: Tail-flick test, latent time to thermal pain, streptozotocin-diabetic SD rats; format: in vivo, rat
Description: as §3, §4

[10] = test system: DRG (Dorsal root ganglion) nerve cells; experiment: Growth of neurites in rat-derived DRG nerve cells (neurite area under microscope); format: cell-based; details: rat embryo DRG cells, 48 hours
Description: For use in this test, DRG nerve cells were seeded at the same density into plates and incubated for 24 hours. Thereafter, the cells were washed with PBS and cultured for 48 hours in a culture medium in the absence or presence of a combination of the extract of Example 1 or Comparative Examples 1 to 10, and NGF. The nerve cells in each group were observed under a microscope to measure the area of the neurites grown therein.

PC12 nerve cells = experiment: Growth of PC12 nerve cells (MTS assay); format: cell-based, rat; details: 48 hours
Description: For use in a test for ability to induce nerve cell growth, PC12 nerve cells were seeded at the same density per well into plates and incubated for 24 hours.

TrkA (NGF receptor) = experiment: Phosphorylation of NGF receptor in PC12 nerve cells (Western blotting); format: cell-based, rat; details: 48 hours
Description: For use in this test, PC12 nerve cells were seeded at the same density per well into plates and incubated for 24 hours. The cells were washed with PBS and cultured for 48 hours in culture media supplemented with the herb extracts of Example 1 or Comparative Examples 1 to 10 or NGF. Thereafter, phosphorylated TrkA (NGF receptor) were detected using Western blotting, and quantitatively analyzed on the basis of the thickness of the detected bands.
NGF signaling starts with the binding of NGF to its receptor (Trk-A), which results in the phosphorylation of the receptor. Thus, an increased level of phosphorylated NGF receptors means the amplification of the NGF signaling pathway.

[11] = oral 100 mg/kg once a day for 12 weeks
[12] = oral 100 mg/kg once a day for 14 weeks
[13] = oral 100 mg/kg once a day for 8 weeks
[14] = oral 100 mg/kg, 16 hours after dosing
[15] = 50 mg/kg once a day for 12 weeks
[16] = 50 mg/kg once a day for 14 weeks
[17] = 50 mg/kg once a day for 8 weeks

NCC1(CC(=O)O)CCCCC1 [Gabapentin]
NGF Level in Sciatic Nerve [1, 11]: 7.2 pg/mg
NGF Level Salivary Gland [2, 12]: 117.1 ng/mg
NGF Level Sciatic Nerve [2, 12]: 5.5 pg/mg
Pressure Pain Threshold [3, 12]: 137.7 g
Latent Time to Pain Response on 58° C. Hot Plate [4, 11]: 16.1 s
Size of Myelin sheath ([5]; 100 mg/kg): 10.4 μm
Thickness of Myelin sheath ([5]; 100 mg/kg): 2.2 μm
Latent Time to Pain Response on 58° C. Hot Plate [6, 12]: 33.0 s
NGF Level Salivary Gland [7, 13]: 2.4 ng/mg
NGF Level Sciatic Nerve [7, 13]: 14.9 pg/mg
NGF Level in Plasma [8, 14]: 610.4 pg/mL
NGF Level in Salivary Gland [8, 14]: 193.1 ng/mg
NGF Level in Sciatic Nerve [8, 14]: 4.2 pg/mg
Latent Time to Pain Reaction [9, 12]: 7.7 s

NGF: nerve growth factor added to culture media
Neurite Area of DRG Nerve Cell ([10]; NGF 2 ng/ml alone): 235 μm^2
Neurite Area of DRG Nerve Cell ([10]; NGF 50 ng/ml alone): 461 μm^2
Proliferative Effect on Nerve Cell (PC12 nerve cells; 2 ng/ml): 112 % of control
Proliferative Effect on Nerve Cell (PC12 nerve cells; 50 ng/ml): 118 % of control
Relative Amount of Phosphorylated NGF (TrkA (NGF receptor); NGF 2 ng/ml alone): 241 % of control
Relative Amount of Phosphorylated NGF (TrkA (NGF receptor); NGF 50 ng/ml alone): 337 % of control

O=C(O)CCCCC1CCSS1 (stereo not drawn) [α-Lipoic acid]
NGF Level in Sciatic Nerve [1, 15]: 7.6 pg/mg
NGF Level Salivary Gland [2, 16]: 118.7 ng/mg
NGF Level Sciatic Nerve [2, 16]: 5.7 pg/mg
Pressure Pain Threshold [3, 16]: 150.0 g
Latent Time to Pain Response on 58° C. Hot Plate [4, 15]: 15.4 s
Size of Myelin sheath ([5]; 50 mg/kg): 11.2 μm
Thickness of Myelin sheath ([5]; 50 mg/kg): 2.6 μm
Latent Time to Pain Response on 58° C. Hot Plate [6, 16]: 31.1 s
NGF Level Salivary Gland [7, 17]: 2.8 ng/mg
NGF Level Sciatic Nerve [7, 17]: 13.8 pg/mg
NGF Level in Salivary Gland ([8]; 50 mg/kg): 164.4 ng/mg
NGF Level in Sciatic Nerve ([8]; 50 mg/kg): 5.0 pg/mg
Latent Time to Pain Reaction [9, 16]: 7.4 s
